Test results reported in ChEMBL document CHEMBL1201862, “PubChem BioAssay data set” (2004).
The source made the active and inactive calls.

Key:
Cytochrome P450 2C19 = Cytochrome P450 2C19 (Homo sapiens, UniProt P33261); test: Cytochrome panel assay with activity outcomes. Panel member name: p450-cyp2c19 Compounds with AC50 equal or less than 10 uM are considered active; assay type: functional
Cytochrome P450 3A4 = Cytochrome P450 3A4 (Homo sapiens, UniProt P08684);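 further: CYP3A4 tested as one member of a cytochrome P450 panel screen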
Cytochrome P450 1A2 = target: T1, Cytochrome P450 1A2 (Homo sapiens, UniProt P05177);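 further: PubChem cytochrome P450 panel assay, CYP1A2 panel member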
T1 sequence (P05177 whole entry): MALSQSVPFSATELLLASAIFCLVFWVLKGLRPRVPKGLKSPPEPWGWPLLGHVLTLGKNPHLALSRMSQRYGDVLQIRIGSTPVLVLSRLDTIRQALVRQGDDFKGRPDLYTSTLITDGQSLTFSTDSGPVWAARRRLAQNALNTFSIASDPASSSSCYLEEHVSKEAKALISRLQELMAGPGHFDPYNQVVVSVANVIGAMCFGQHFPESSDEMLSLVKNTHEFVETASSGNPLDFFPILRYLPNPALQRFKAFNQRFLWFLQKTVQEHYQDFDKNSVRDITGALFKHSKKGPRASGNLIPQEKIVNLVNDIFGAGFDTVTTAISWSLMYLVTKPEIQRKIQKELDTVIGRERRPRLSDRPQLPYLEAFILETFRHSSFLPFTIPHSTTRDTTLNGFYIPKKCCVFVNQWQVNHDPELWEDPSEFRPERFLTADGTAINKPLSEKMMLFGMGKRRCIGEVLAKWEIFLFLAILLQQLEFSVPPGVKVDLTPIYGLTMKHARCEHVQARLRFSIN

Cytochrome P450 2D6 = Cytochrome P450 2D6 (Homo sapiens, UniProt P10635);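 further: CYP2D6 member of a cytochrome P450 panel assay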
[1] = target: T2, Polyadenylate-binding protein 1 (Homo sapiens, UniProt P11940); test: PABP1 MLLE–PAM2 interaction inhibitors, dose response, miRNA deadenylation inhibitor project, biochemical, fluorescence polarization, Cy5-PAM2 peptide, secondary (AID 602260); assay type: functional; conditions: read-out: IC50_Mean
[2] = target: T2, Polyadenylate-binding protein 1; test: PABP1 MLLE–PAM2 binding inhibitor potency, dose response, biochemical, fluorescence polarization, FITC-PAM2 peptide (AID 602259); assay type: functional; conditions: read-out: IC50_Mean
[3] = microbe, parasite or virus in culture; assay type: functional; conditions: Mycobacterium tuberculosis
[4] = C. albicans growth with fluconazole, confirmation, fluorescence, retest (AID 2467); assay type: functional, cell-based
[5] = NIH-3T3 fibroblast cytotoxicity, dose response, cytotoxicity control, cell-based, fluorescence, Alamar Blue, secondary assay (AID 2327); assay type: functional;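 further: NIH-3T3 mouse fibroblasts cultured with fluconazole at 8 µg/mL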
[6] = growth suppression of beta-catenin-knockout colon cells, dose response, cell-based, HCT116, human colon tumor (AID 1045); assay type: functional;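 further: HCT116 colon tumor cells with beta catenin knocked out; cells exposed to compound for 60 hours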
[7] = HEp-2 cell cytotoxicity, dose response, cytotoxicity control for RSV inhibitor project, HTS (AID 2410); assay type: functional; conditions: human respiratory syncytial virus
[8] = Luminescence Cell-Based Dose Response HTS to Identify Activators of Luciferase Translation or Activity in H4 […] Cells. [Related pubchem assays: 1829 (Project Summary), 1814 (Primary HTS)]; assay type: functional
H4 = test: Luminescence Cell-Based Dose Response HTS to Identify Activators of 5'UTR Stem-Loop Driven Prion Protein mRNA Translation in H4 Neuroglioblastoma Cells. [Related pubchem assays: 1829 (Project Summary), 1814 (Primary HTS)]; assay type: functional; conditions: Homo sapiens
[9] = growth suppression of PTEN-null colon cells, dose response, cell-based, HCT116 PTEN knockout (AID 1047); assay type: functional;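 further: HCT116 colon tumor cells with PTEN knocked out; cells exposed to compound for 60 hours before readout; potency for loss of cell viability measured by luminescence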
[10] = Luminescence Cell-Based Dose Retest to Confirm Inhibitors of Cancer Stem Cells. [Related pubchem assays (depositor defined):AID2717, AID2721]; assay type: functional; conditions: Homo sapiens
Streptococcus = test: Group A Streptococcus viability loss, dose response, counter-screen for streptokinase expression inhibitor project, luminescence, BacTiterGlo (AID 1915); assay type: functional, organism-based;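 further: potency for reduction of bacterial viability or growth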
[11] = test system: Streptococcus sp. 'group A'; test: growth inhibition of control SK(-) GAS strain, dose response, counter-screen for streptokinase expression inhibitor project, luminescence, kanamycin, BacTiterGlo, confirmation (AID 1900); assay type: functional, organism-based
Streptokinase A = target: T3, Streptokinase A (Streptococcus pyogenes serotype M1, UniProt P10520); test: S. pyogenes streptokinase expression inhibitors, potency, dose response, plasminogen activation absorbance, OD405 (AID 1914); assay type: functional, Streptococcus pyogenes M1 GAS;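 further: secreted streptokinase activity via plasminogen activation per viability signal from cell pellet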
T3 sequence (P10520 whole entry): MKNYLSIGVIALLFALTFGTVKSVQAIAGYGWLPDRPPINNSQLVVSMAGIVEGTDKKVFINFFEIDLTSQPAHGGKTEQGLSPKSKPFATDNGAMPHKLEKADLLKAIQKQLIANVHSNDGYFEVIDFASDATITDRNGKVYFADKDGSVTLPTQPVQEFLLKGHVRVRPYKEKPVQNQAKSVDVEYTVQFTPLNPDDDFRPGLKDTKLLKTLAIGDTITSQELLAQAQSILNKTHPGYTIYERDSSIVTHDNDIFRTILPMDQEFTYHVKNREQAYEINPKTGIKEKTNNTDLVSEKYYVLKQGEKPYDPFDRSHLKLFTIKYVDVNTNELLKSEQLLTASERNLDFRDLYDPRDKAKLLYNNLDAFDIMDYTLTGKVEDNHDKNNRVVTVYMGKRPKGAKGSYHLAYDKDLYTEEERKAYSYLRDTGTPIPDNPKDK

Paired box protein Pax-8 = Paired box protein Pax-8 (Homo sapiens, UniProt Q06710); test: inhibitors of PAX8-driven TPO luciferase reporter, dose response, RMG-I cells, cherry-pick (AID 687027); assay type: functional, cell-based;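 further: luciferase reporter driven by Pax8 target thyroperoxidase promoter measured by SteadyGlo luminescence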
Sequence of Paired box protein Pax-8 (Q06710 whole entry): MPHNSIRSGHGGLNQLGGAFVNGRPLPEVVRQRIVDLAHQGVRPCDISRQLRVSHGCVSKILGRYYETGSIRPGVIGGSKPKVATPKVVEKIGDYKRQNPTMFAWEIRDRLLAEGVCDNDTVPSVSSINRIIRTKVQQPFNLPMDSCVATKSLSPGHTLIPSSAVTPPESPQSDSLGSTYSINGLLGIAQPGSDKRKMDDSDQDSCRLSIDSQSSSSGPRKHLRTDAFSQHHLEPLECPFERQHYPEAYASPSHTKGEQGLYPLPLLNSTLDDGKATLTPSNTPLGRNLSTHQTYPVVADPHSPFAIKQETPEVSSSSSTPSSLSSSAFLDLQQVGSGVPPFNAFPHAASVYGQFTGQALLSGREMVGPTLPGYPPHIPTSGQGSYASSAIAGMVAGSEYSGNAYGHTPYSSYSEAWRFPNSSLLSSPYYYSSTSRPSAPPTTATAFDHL

Sequence of Cytochrome P450 3A4 (P08684 whole entry): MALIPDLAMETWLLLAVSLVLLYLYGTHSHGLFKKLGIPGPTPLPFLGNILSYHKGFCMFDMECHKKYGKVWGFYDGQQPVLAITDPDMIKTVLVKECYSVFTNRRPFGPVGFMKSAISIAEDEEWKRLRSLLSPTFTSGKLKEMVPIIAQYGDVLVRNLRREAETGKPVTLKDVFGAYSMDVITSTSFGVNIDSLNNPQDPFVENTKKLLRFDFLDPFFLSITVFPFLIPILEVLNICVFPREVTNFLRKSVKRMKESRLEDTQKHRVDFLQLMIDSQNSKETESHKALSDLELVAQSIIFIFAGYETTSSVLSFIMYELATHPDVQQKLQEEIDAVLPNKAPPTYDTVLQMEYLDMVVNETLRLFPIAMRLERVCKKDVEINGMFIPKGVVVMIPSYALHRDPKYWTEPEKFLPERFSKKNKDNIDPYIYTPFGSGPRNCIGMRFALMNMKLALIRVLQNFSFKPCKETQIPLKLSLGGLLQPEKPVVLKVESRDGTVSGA
T2 sequence (P11940 whole entry): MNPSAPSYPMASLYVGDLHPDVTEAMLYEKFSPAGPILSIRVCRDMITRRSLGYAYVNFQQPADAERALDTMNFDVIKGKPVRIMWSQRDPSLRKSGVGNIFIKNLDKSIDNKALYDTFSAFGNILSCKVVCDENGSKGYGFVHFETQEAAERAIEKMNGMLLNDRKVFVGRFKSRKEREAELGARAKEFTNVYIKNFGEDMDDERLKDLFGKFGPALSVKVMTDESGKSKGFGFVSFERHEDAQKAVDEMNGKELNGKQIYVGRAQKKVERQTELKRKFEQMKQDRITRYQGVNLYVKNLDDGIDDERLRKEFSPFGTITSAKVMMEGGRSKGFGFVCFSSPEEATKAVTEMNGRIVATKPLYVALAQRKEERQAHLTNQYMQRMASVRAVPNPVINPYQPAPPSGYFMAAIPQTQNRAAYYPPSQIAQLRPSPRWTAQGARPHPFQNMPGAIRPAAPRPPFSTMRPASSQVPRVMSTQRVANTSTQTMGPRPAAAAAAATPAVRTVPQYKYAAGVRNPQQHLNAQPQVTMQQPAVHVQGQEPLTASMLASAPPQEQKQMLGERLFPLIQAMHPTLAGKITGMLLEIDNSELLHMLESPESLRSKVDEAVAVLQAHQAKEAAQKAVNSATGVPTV
Sequence of Cytochrome P450 2C19 (P33261 whole entry): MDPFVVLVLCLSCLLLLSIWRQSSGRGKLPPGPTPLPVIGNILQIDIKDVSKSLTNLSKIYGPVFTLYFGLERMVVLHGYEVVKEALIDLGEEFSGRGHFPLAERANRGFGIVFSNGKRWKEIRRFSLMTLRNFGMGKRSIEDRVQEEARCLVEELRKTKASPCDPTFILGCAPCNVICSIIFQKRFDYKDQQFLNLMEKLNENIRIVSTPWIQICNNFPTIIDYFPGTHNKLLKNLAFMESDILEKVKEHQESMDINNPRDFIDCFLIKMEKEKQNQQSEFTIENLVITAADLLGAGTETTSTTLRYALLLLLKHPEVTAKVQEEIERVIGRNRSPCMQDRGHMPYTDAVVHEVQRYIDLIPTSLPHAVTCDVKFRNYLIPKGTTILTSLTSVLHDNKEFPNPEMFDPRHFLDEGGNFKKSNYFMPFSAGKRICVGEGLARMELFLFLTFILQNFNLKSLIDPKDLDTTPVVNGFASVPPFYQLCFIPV
Sequence of Cytochrome P450 2D6 (P10635 whole entry): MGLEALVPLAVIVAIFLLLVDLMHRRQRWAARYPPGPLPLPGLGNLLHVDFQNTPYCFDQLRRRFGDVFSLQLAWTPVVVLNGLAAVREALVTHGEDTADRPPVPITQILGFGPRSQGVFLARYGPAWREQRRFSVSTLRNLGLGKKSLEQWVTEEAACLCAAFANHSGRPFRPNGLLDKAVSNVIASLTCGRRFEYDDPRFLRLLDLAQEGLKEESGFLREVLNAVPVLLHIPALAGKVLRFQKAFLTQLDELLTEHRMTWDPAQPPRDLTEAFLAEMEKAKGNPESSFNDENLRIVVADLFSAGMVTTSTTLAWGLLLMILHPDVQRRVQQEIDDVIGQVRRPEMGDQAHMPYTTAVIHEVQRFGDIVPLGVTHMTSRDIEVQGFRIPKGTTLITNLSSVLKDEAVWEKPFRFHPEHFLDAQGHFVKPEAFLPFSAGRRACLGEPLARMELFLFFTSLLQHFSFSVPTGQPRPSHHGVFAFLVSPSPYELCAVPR

O=C(OCc1ccc(Cl)cc1)c1ccccc1C(=O)c1ccccc1
AC50 (Cytochrome P450 2C19; read-out: AC50): 0.0891 µM (inconclusive)
AC50 (Cytochrome P450 3A4): 17.8 µM (inconclusive)
AC50 (Cytochrome P450 1A2): 3.55 µM (inconclusive)

C/C(CCN1CCCCc2nc(C)c(C)cc21)=N\O[C@@H](C)CN1CCCCc2nc(C)c(C)cc21
AC50 (Cytochrome P450 2D6): 5.01 µM (inconclusive)

CCNc1ncc2nc(-c3cc(F)cc(F)c3)c(=O)n(CCc3ccccc3)c2n1
AC50 (Cytochrome P450 3A4): 12.6 µM (inconclusive)
AC50 (Cytochrome P450 1A2): 25.1 µM (inconclusive)

CN(C)c1nc(-c2ccoc2)nc2ccccc12
AC50 (Cytochrome P450 2D6): 39.8 µM (inconclusive)
AC50 (Cytochrome P450 2C19; read-out: AC50): 31.6 µM (inconclusive)
AC50 (Cytochrome P450 3A4): 25.1 µM (inconclusive)

Cc1cccc(-c2nc(=S)c3c(o2)CCCC3)c1
IC50 [1]: > 66 µM (inactive)
IC50 [2]: > 66 µM (inactive)

CC1CCc2c(sc3ncnc(NCCCOC(C)C)c23)C1 (stereo not given)
CC50 [3]: > 40 µM (active)

CCCc1ccc(C(=O)NNc2cccc(C)c2)cc1
EC50 [4]: > 38 µM (not active)
EC50 [5]: 30.2 µM (active)

CCC(C)C1C(C#N)=C(N)Oc2[nH]nc(C)c21 (stereo not given)
EC50 [6]: 189 µM (active)

CC(=O)NCCNc1nc(-c2ccc(N(C)C)cc2)nc2ccccc12
AC50 (Cytochrome P450 2D6): 20 µM (inconclusive)
AC50 (Cytochrome P450 3A4): 10 µM (inconclusive)

COc1ccc(-c2nn(-c3ccccc3)cc2/C=C\C(=O)Nc2ccc(C(=O)O)cc2)cc1
CC50 [7]: 26.4 µM (active)

Oc1nc2c(-c3cccc(Br)c3)nnn2c2ccccc12
EC50 [8]: 0.258 µM (active)
EC50 (H4): 18.8 µM (active)

Cc1ccc2sc(C)[n+](CCC(C)S(=O)(=O)[O-])c2c1 (stereo not given)
IC50 [1]: > 66 µM (inactive)
IC50 [2]: > 66 µM (inactive)

COc1ccccc1-c1nccc(NC2CCNCC2)n1
AC50 (Cytochrome P450 2C19; read-out: AC50): 1.58 µM (inconclusive)
AC50 (Cytochrome P450 1A2): 15.8 µM (inconclusive)

Fc1cccc(CCN2CCNC[C@H]2Cc2cccc3ccccc23)c1
CC50 [3]: 26.2 µM (active)

c1ccc(CN2CCN(c3nc(-c4ccccn4)nc4ccccc34)CC2)cc1
EC50 [9]: 10.6 µM (active)
EC50 [6]: 8.05 µM (active)

COc1cc(OC)cc(N(C(=O)C2COc3ccccc3O2)C(C(=O)NC2CCCCC2)c2ccc(O)cc2)c1 (stereo not given)
EC50 [4]: 0.798 µM (inconclusive)
EC50 [5]: 94.7 µM (active)

COc1cc(/C=C/c2nc(O)nc(O)c2[N+](=O)[O-])ccc1OCCC(C)C
AC50 [10]: 5.94 µM (active)
CC50 [7]: 19.1 µM (active)

CCOC(=O)N1CCN(C(=O)c2cccn3c(=O)c4cc(Cl)ccc4nc23)CC1
AC50 (Cytochrome P450 1A2): 25.1 µM (inconclusive)

CN1CCN(C(=O)c2ccc(-n3cccc3)cc2)CC1
AC50 (Cytochrome P450 2D6): 15.8 µM (inconclusive)
AC50 (Cytochrome P450 2C19; read-out: AC50): 25.1 µM (inconclusive)
AC50 (Cytochrome P450 1A2): 25.1 µM (inconclusive)

O=C1CCCN1c1ccc(S(=O)(=O)Oc2cccc(Cl)c2)cc1[N+](=O)[O-]
AC50 (Cytochrome P450 2D6): 1.78 µM (inconclusive)

CCSc1sccc1C1C(C#N)=C(N)N(c2cccnc2)C2=C1C(=O)CCC2 (stereo not given)
IC50 [1]: > 66 µM (inactive)
IC50 [2]: > 66 µM (inactive)

COc1cccc(NC(=O)CSc2nc3ccccc3cc2Cc2ccccc2)c1
AC50 (Cytochrome P450 1A2): 4.47 µM (inconclusive)

Cn1c(=O)c(-c2ccc(Cl)cc2)nc2cnc(Nc3ccccc3)nc21
AC50 (Cytochrome P450 1A2): 31.6 µM (inconclusive)

COc1ccc(/C=C/C(=O)Nc2ccccc2C(=O)N2CCCC2)cc1
AC50 (Cytochrome P450 3A4): 1 µM (inconclusive)
AC50 (Cytochrome P450 1A2): 28.2 µM (inconclusive)

Cn1c(=O)c(C(=O)CSc2nnc(Nc3ccccc3)s2)c(N)n(Cc2ccccc2)c1=O
EC50 [9]: 8.05 µM (active)
EC50 [6]: 9.15 µM (active)

CCOc1cc(C(=S)N2CCOCC2)ccc1OC
IC50 [1]: > 66 µM (inactive)
IC50 [2]: > 66 µM (inactive)

Cc1n[nH]c(SC(C(=O)c2ccccc2)c2ccccc2)n1 (stereo not given)
AC50 (Cytochrome P450 2D6): 20 µM (inconclusive)
AC50 (Cytochrome P450 1A2): 39.8 µM (inconclusive)

O=C(NCc1ccco1)Nc1cccs1
AC50 (Cytochrome P450 2D6): 14.1 µM (inconclusive)
AC50 (Cytochrome P450 3A4): 20 µM (inconclusive)

CCC(C(=O)NC1CCCC1)N(C(=O)Cn1nnc(-c2ccc(C)o2)n1)c1cnc2ccccc2c1 (stereo not given)
EC50 [9]: 17.2 µM (active)
EC50 [6]: 17.5 µM (active)

O=C(Nc1nc(-c2cc(Cl)sc2Cl)cs1)c1cccs1
EC50 (Streptococcus): 18.1 µM (active)
AC50 [10]: 1.13 µM (active)
EC50 [11]: 14.2 µM (active)
EC50 (Streptokinase A): > 50 µM (not active)
CC50 [3]: 25.9 µM (active)

CC1Cc2ccccc2N1C(=O)CSc1n[nH]c2c3cc(F)ccc3nc-2n1 (stereo not given)
EC50 [9]: 24.5 µM (active)
EC50 [6]: 25 µM (active)

COCCSc1nnc(NC(=O)CCS(=O)(=O)c2ccccc2)s1
EC50 [4]: 3.97 µM (active)
EC50 [5]: > 150 µM (inactive)

COc1ccc(OCC(=O)NC(=S)Nc2ccc(S(=O)(=O)Nc3cc(OC)nc(OC)n3)cc2)cc1
IC50 [1]: > 66 µM (inactive)
IC50 [2]: > 66 µM (inactive)

CC(C)CCNC(=O)C(c1ccco1)N(Cc1ccc(F)cc1)C(=O)c1snc(C(N)=O)c1N (stereo not given)
EC50 [4]: > 38 µM (not active)
EC50 [5]: 26.5 µM (active)

C[C@@H](NC(=O)c1[nH]cnc1C(=O)N[C@@H](Cc1ccccc1)C(=O)OC(C)(C)C)c1ccccc1
AC50 (Paired box protein Pax-8): 5.32 µM (active)

Cc1ccc(S(=O)(=O)c2nc(Nc3nccs3)sc2Cl)cc1
CC50 [3]: > 40 µM (active)

COCCSc1nnc(NC(=O)C(C)(C)C)s1
AC50 (Cytochrome P450 1A2): 25.1 µM (inconclusive)

N=C(NOC(=O)C12CC3CC(CC(C3)C1)C2)c1ccccc1
EC50 [6]: 90.5 µM (active)

Oc1ccc(C(=S)N2CCCCCC2)cc1
IC50 [1]: > 66 µM (inactive)
IC50 [2]: > 66 µM (inactive)

CC(C)[C@H](N)c1nnc(SCc2ccc(Cl)cc2)o1
AC50 (Cytochrome P450 2D6): 28.2 µM (inconclusive)

Cc1ccc(NC(=O)c2cc(-c3ccccc3)nn2-c2ccccc2)c(Br)c1
EC50 [9]: 34.6 µM (active)
EC50 [6]: 23.5 µM (active)

CCC(=O)c1ccc(OCC(O)CN2CCCCC2)cc1.Cl (stereo not given)
AC50 (Cytochrome P450 2D6): 39.8 µM (inconclusive)
AC50 (Cytochrome P450 2C19): inconclusive

CC(=O)c1c(N2CCOCC2)nc(=S)n(-c2ccccc2)c1C
IC50 [1]: > 66 µM (inactive)
IC50 [2]: > 66 µM (inactive)

CC1CCCC=CC2CC(OC(=O)CN(C)C)CC2C(O)C=CC(=O)O1 (stereo not given)
AC50 (Paired box protein Pax-8): < 0.26 µM (active)

O=C(CSc1ccccc1C(=O)O)NC1CCCCCC1
IC50 [1]: > 66 µM (inactive)
IC50 [2]: > 66 µM (inactive)

CC(=O)NC(Cc1ccc(F)cc1)C(=O)O (stereo not given)
AC50 (Cytochrome P450 1A2): 0.01 µM (inconclusive)

COc1cc2c(cc1OC)CN(C(=O)CSc1ccccc1C)CC2
IC50 [1]: > 66 µM (inactive)
IC50 [2]: > 66 µM (inactive)

Cc1ccccc1Nc1nc(N)nc(O)c1N=O
IC50 [1]: > 66 µM (inactive)
IC50 [2]: 38.2 µM (inactive)

COc1ccc(CN(C)C[C@H]2OCCCC[C@H](C)Oc3ccc(NC(=O)Nc4ccc(C(F)(F)F)cc4)cc3C(=O)N([C@H](C)CO)C[C@@H]2C)cc1
AC50 (Paired box protein Pax-8): 10.9 µM (active)

O=C(Nc1cnc2ccccc2c1)c1cccc(-n2cnnn2)c1
AC50 (Cytochrome P450 2D6): 7.94 µM (inconclusive)

CC1(C)C=Cc2c(ccc3c2OC[C@@H](c2ccc(O)cc2O)C3)O1 [GLABRIDIN]
AC50 [10]: 6.05 µM (active)
CC50 [7]: 13.4 µM (active)
